# Experimental data published in PubChem BioAssay (NCI).
#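 Values below derive from 48-hour exposures of cells grown in 96-well plates, with endpoints linearly interpolated between the two concentrations bracketing the appropriate inhibition level. At the GI50, growth is halved. The concentration for full growth arrest is given as TGI.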
# Experiments:
# Test in all cases: NCI anticancer screen, dose series, 48 h
# [1] = system: MDA-MB-231 breast
# [2] = system: SF-268 CNS
# [3] = system: CAKI-1 renal
# [4] = system: HL-60(TB) leukemia
# [5] = system: EKVX NSCLC
# [6] = system: SR leukemia
# [7] = system: MDA-MB-435
# [8] = system: A549 NSCLC
# [9] = system: NCI-H460 lung
# [10] = system: K-562 leukemia
# [11] = system: MOLT-4 leukemia
# [12] = system: UACC-62 melanoma
# [13] = system: NCI-H23 lung
# [14] = system: T-47D breast
# [15] = system: NCI/ADR-RES ovarian
# [16] = system: HCT-15 colon
# [17] = system: HCT-116 colon
# [18] = system: NCI-H522 lung
# [19] = system: ACHN renal
# [20] = system: SK-MEL-5 melanoma
# [21] = system: HCC-2998 colon
# [22] = system: DU-145 prostate
# [23] = system: SNB-75 CNS
# [24] = system: SF-295 CNS
# [25] = system: KM12 colon
# [26] = system: SW-620 colon
# [27] = system: LOX IMVI melanoma
# [28] = system: U251 CNS
# [29] = system: A498 renal
structure (smiles),measurement,setting,value
COc1ccc(/C=N/NC(=O)c2[nH]c3ccc(Br)cc3c2-c2ccccc2)s1,GI50,[1],336 nM
same,TGI,[1],15.7 µM
same,GI50,[2],532 nM
same,TGI,[2],> 100 µM
same,GI50,[3],168 nM
same,TGI,[3],> 57.3 µM
same,GI50,[4],77.8 nM
same,TGI,[4],2690 nM
same,GI50,[5],3.55 µM
same,TGI,[5],> 100 µM
same,GI50,[6],102 nM
same,TGI,[6],> 100 µM
same,GI50,[7],65.6 nM
same,TGI,[7],153 nM
same,GI50,[8],160 nM
same,TGI,[8],> 100 µM
same,GI50,[9],246 nM
same,TGI,[9],3.63 µM
same,GI50,[10],113 nM
same,TGI,[10],> 100 µM
same,GI50,[11],113 nM
same,TGI,[11],> 100 µM
same,GI50,[12],146 nM
same,TGI,[12],> 51.5 µM
same,GI50,[13],124 nM
same,TGI,[13],> 47.7 µM
same,GI50,[14],7.1 µM
same,TGI,[14],> 100 µM
same,GI50,[15],39.8 nM
same,TGI,[15],4.36 µM
same,GI50,[16],141 nM
same,TGI,[16],> 37 µM
same,GI50,[17],103 nM
same,GI50,[18],19.3 nM
same,TGI,[18],54.4 nM
same,GI50,[19],169 nM
same,TGI,[19],> 52.8 µM
same,GI50,[20],101 nM
same,TGI,[20],394 nM
same,GI50,[21],349 nM
same,TGI,[21],> 71.6 µM
same,GI50,[22],135 nM
same,TGI,[22],45.7 µM
same,GI50,[23],148 nM
same,TGI,[23],20 µM
same,GI50,[24],106 nM
same,TGI,[24],15.1 µM
same,GI50,[25],301 nM
same,TGI,[25],> 60.5 µM
same,GI50,[26],147 nM
same,TGI,[26],> 100 µM
same,GI50,[27],38.4 nM
same,TGI,[27],> 100 µM
same,GI50,[28],259 nM
same,TGI,[28],> 100 µM
same,GI50,[29],33.8 µM
same,TGI,[29],> 100 µM
